Laboratory results as given in US20210223229A1, “IMMUNE FUNCTION INSPECTION METHOD, CANCER PATIENT CATEGORIZATION METHOD, CANCER TREATMENT EFFICACY PREDICTION METHOD, AGENT FOR INCREASING INTRACELLULAR CALCIUM ION CONCENTRATION, AGENT FOR INCREASING SELECTIVE FUNCTION OF EFFECTOR MEMORY (EM) AND EFFECTOR (EFF) IN TUMOR TISSUE, AND METHOD FOR …” (NATIONAL UNIVERSITY CORPORATION OKAYAMA UNIVERSITY, priority 2016, published 2021).
“Also recorded” adds a separate entry of the source.

Experiments:
[1] = system: OVA-expressing B16 melanoma cell strain MO5
Method: The four types of groups: an untreated group (C), and, 10 days after the tumor cell inoculation, sole use of aspirin, sole use of phenformin (Phen), combined use of aspirin and phenformin, each consisting of 5 mice, were prepared. Phenformin is a biguanide-based drug, like metformin. From Day 10 of the tumor cell inoculation, phenformin contained in a feed in an amount of 0.5% was given. Further, the feed was replaced by a normal feed every four days. Specifically, a phenformin-containing feed was given only on Day 10 to Day 14, and Day 18 to Day 22. A normal feed free of phenformin was given from Day 14 to Day 18, and Day 22 to Day 26. This administration method is based on the fact that there have been fatal cases by everyday administration of phenformin due to side effects.
In contrast, aspirin (600 μg/mL) was given by free water drinking, and the water drinking was continuously performed from Day 10.

[2] = system: Glut1-positive tumor-infiltrating CD8T cells; assay: Multifunctionality of CD8T cells expressing Glut1, MethA tumor; assay type: in vivo, BALB/c
Method: Tumor (MethA) 2×10^6 was intradermally injected to 8-week old BALB/c, and metformin (5 mg/mL) was continuously given by free-water-drinking from Day 7. Three and 6 days after the treatment (Day 10 and Day 13), the tumor-infiltrating T cells (TIL) were separated. After stimulating culture in the presence of PMA/Ionomycin/Monencin for 6 hours, the cells were stained with anti-CD8 antibody, anti-glucose transporter (Glut1) antibody, and intracellular cytokines (IL-2/TNFα/IFNγ), followed by analysis using a flow cytometer. […] The proportion is increased by metformin administration. These facts indicate that, by confirming the Glut1 expression level in the tumor-infiltrating CD8T cells using a flow cytometer, it is possible to assume the immune status without performing a multifunctionality test. Further, by performing immunotherapy such as metformin administration, and confirming that the Glut1 expression level was increased in the CD8T cells by the therapy, it is possible to determine that the treatment had immune effects.

[3] = system: human CD8T cells; assay: Calcium concentration in peripheral blood CD8T cells of cancer patients before and after metformin administration; assay type: in vivo; conditions: stage I, stage IIa and stage IV cancer patients; before vs after metformin
Method: In stage I, stage IIa, and stage IV cancer patients, changes in calcium concentration increase by PMA stimulation before and after metformin administration were measured. Human PBMC (human peripheral blood mononuclear cells) were collected before and after the metformin administration that was performed in accordance with the administration schedule shown in the figure, and subjected to stimulation with 100 ng/mL PMA and 5 ionomycin in the same manner as in Example 3, followed by measurement of calcium ion increase in human CD8T cells as a result of stimulation. Specifically, peripheral blood mononuclear cells (PBMC) were separated from peripheral blood by a gravity separation method, and 1×10^6 lymphocytes were incubated for 30 minutes at 37° C. in the presence of 1 μg/mL anti-human CD8 antibody and 1 μM Fluo4/FuraRed. The incubation was followed by washing with an AIM-V medium. After the washing, AIM-V was added and unstimulated (before stimulation) lymphocytes were collected by FACSCantoII for 20 minutes, thereby collecting baseline data. Thereafter, 100 ng/mL PMA and 2 μM ionomycin were added and stimulation was applied, followed by immediate collection by FACSCantoII, thereby obtaining data after stimulation. Consequently, waveforms according to the cytoplasmic calcium concentrations were detected.

[4] = system: glucose transporter (Glut1) in tumor-infiltrating CD8T cells; assay: Glucose transporter (Glut1) expression in tumor-infiltrating CD8T cells, MethA tumor; assay type: in vivo, BALB/c; conditions: metformin 5 mg/mL free-water-drinking from Day 7; Day 10 and Day 13; with and without PMA stimulation
Method: Tumor (MethA) 2×10^6 was intradermally injected to 8-week old BALB/c, and metformin (5 mg/mL) was continuously given by free-water-drinking from Day 7. Three and 6 days after the treatment (Day 10 and Day 13), the tumor-infiltrating T cells (TIL) were separated and stained with anti-CD8 antibody, and anti-glucose transporter (Glut1) antibody. Further, after stimulating culture in the presence of PMA/Ionomycin/Monencin for 6 hours, the cells were stained with anti-CD8 antibody and anti-glucose transporter (Glut1) antibody, followed by analysis using a flow cytometer.

[5] = system: glucose transporter (Glut1) in CD8TIL; assay: Glut1 expression versus changes in glucose concentration in CD8TIL, MethA tumor; assay type: in vivo, BALB/c mice
Method: Syngeneic tumor (MethA) 2×10^6 was intradermally injected to 8-week old BALB/c mice, and administration of metformin (5 mg/mL) was started from Day 7. Three days after the treatment, the tumor-infiltrating T cells (TIL) were separated. After culture in the presence of a culture solution having a glucose concentration of 0, 0.1, 1.2, 6.1, 12.5, or 25 mM at 37° C. for 0, 1, 3, 6 hours, the cells were stained with CD3, CD8, and glucose transporter (Glut1) antibodies, followed by analysis using a flow cytometer (FIG. 9).

[6] = system: peripheral blood CD8T cells of cancer patients; assay: Multifunctionality of human CD8T cells under a low glucose condition (intracellular cytokine staining, FACS); assay type: cell-based; conditions: for number of CD8T cells producing three cytokines (IL-2, TNFα, IFNγ): 10 μM metformin 6 hours pre-culture, PMA/ionomycin stimulation
Method: FIG. 4: Analysis of multifunctionality of human CD8T-cells under a low glucose condition. Peripheral blood lymphocytes (PBMC) w/o 10 μM metformin were cultured for 6 hours. Subsequently, after washing, the cells were cultured for 12 hours at each glucose concentration. At the final 6 hours, the cells were cultured with PMA stimulation. After the culture, intracellular cytokine was stained with an antibody, followed by FACS analysis. It was confirmed that the multifunctionality of peripheral blood CD8T cells of cancer patients were recovered by being treated with metformin in advance, even in a low glucose environment, i.e., 1.0 mM.
Cryopreserved human PBMC obtained from cancer patients were thawed and cultured for 6 hours in the presence of FCS(−)RPMI 10 μM metformin. After the culture, the cells were separated and washed with FCS(−)Glc(−)RPMI. After the washing, the cells were subjected to stimulating culture for 6 hours by 50 ng/mL PMA and 2 ionomycin using RPMI containing 0.1, 1, 10 mM Glc in the presence of 1 monensin. The cells were separated and the cell-surface molecules were stained with antihuman CD8 antibody APC-Cy7, followed by a cell permeabilization treatment. The intracellular cytokines were stained with antihuman IL-2 antibody APC and antihuman TNFα antibody BV510, and […] IFNγ antibody FITC, followed by analysis using a flow cytometer (FIG. 4).

[7] = system: tumor-infiltrating CD8T cells; assay: Memory phenotype of antigen-specific tumor-infiltrating CD8T cells and glucose (2-NBDG) uptake in each cell fraction; assay type: in vivo, C57BL/6 mice
Method: 2×10^5 MO-5 was intradermally inoculated to C57BL/6 mice; 7 days after the transplantation, free-water-drinking oral administration of 5 mg/mL metformin was started. Seven days after the administration (14 days after the transplantation), the tumor tissue was excised, and tumor-infiltrating lymphocytes were separated. After the separation, the lymphocytes were washed with 0.1% BSA/PBS, and staining was performed with antimouse CD8 antibody APC-Cy7, antimouse CD62L antibody BV421, antimouse CD44 antibody PerCP, antimouse KLRG1 antibody APC, and 400 μM 2-NBDG (2-[N-(7-nitrobenz-2-oxa-1,3-diazol-4-yl) amino]-2-deoxy-d-glucose) for 30 minutes at 4° C. After washing with 0.1% BSA/PBS, frequency and memory phenotype (CD44, CD62L, KLRG1) of antigen-specific tumor-infiltrating CD8T cells, and deoxyglucose (2-NBDG) uptake in each cell fraction were analyzed using a flow cytometer (FIG. 2).

[8] = system: mouse CD8T cells; assay: Detection of intracellular calcium ion in mouse tumor-infiltrating and lymph node lymphocytes after metformin administration; assay type: in vivo, C57BL/6 mice; conditions: 5 mg/mL metformin free-water-drinking for 7 days
Method: 2×10^5 MO-5 (OVA-expressing B16 melanoma cell strain) was intradermally inoculated to C57BL/6 mice; 7 days after the transplantation, free-water-drinking oral administration of 5 mg/mL metformin was started. Seven days after the administration (14 days after the transplantation), the lymph node (LN) and the tumor tissue (Tumor) were excised, and the tumor-infiltrating lymphocytes and lymphocytes of the lymph node were collected. After the cells were washed with FCS(−)RPMI, the cells were stained using antimouse CD3 antibody BV510, antimouse CD8 antibody APC-Cy7, 1 Fluo4, and 1 Fura Red for 30 minutes at 37° C. After the staining, the cells were washed with FCS(−)RPMI warmed at 37° C., followed by measurement of the background of intracellular calcium ions by a flow cytometer for 30 seconds. After the background measurement, the cells were immediately stimulated by 100 ng/ml PMA and 5 ionomycin, and the increase in calcium ions in the mouse CD8T cells by stimulation was measured (FIG. 1).

[9] = system: glucose transporter (Glut1) in CD8TIL; assay: Change in Glut1 expression over time in CD8TIL, MethA tumor; assay type: in vivo, BALB/c; conditions: after 6-hour in-vitro culture; metformin 5 mg/mL from Day 7, 3 days of treatment
Method: Syngeneic tumor MethA (2×10^6) was intradermally injected to 8-week old BALB/c, and administration of metformin (5 mg/mL) and N-acetylcysteine (NAC, 10 mg/mL) was started from Day 7. Three days after the treatment, the tumor-infiltrating T cells (TIL) were separated, and cultured for 0, 1, 3 and 6 hours at 37° C. Therefore, the cells were stained with CD3, CD8, and glucose transporter (Glut1) antibodies, followed by analysis using a flow cytometer (FIG. 8).

[10] = 5 mg/mL metformin free-water-drinking for 7 days, MO-5 tumor

SMILES: [H]/N=C(/N)N/C(=N/[H])NCCc1ccccc1 [phenformin]
- side effects of everyday administration ([1]; everyday administration of phenformin): fatal cases
- water drinking behaviour ([1]; mouse, in vivo): the mice stopped drinking water
- tumor growth inhibitory effects ([1]; phenformin 0.5% in feed Day 10-14 and Day 18-22, aspirin 600 μg/mL free water drinking from Day 10): strong tumor growth inhibitory effects

SMILES: CN(C)C(=N)N=C(N)N [metformin]
- proportion of Glut1-positive groups with multifunctionality ([2]; metformin 5 mg/mL free-water-drinking from Day 7, PMA/Ionomycin/Monencin 6 hours): increased
- Glut1-positive and multifunctional cell groups per tumor unit ([2]; metformin administration group): increased
- calcium concentration by PMA stimulation in human CD8T cells [3]: increase
- Glut1-positive group in tumor-infiltrating CD8T cells [4]: conspicuous increase; also recorded: increased
- up-regulation of GLUT-1 in CD8TIL ([5]; 6-hour in-vitro culture, CD8TIL separated from metformin-administered mice): significant up-regulation
- Glut-1 expression in CD8TIL ([5]; glucose concentration 0 mM): does not occur
- Glut-1 expression, proportion of CD8TIL ([5]; glucose concentration of 0.1 mM, metformin-administered mice): 14.3%
- number of CD8T cells producing three cytokines (IL-2, TNFα, IFNγ) ([6]; glucose concentration 0.1 mM): no difference
- number of CD8T cells producing three cytokines (IL-2, TNFα, IFNγ) ([6]; glucose concentration 1 mM): significantly increased
- multifunctionality of peripheral blood CD8T cells of cancer patients ([6]; low glucose environment 1.0 mM, treated with 10 μM metformin in advance): recovered
- glycolysis system (2-NBDG uptake) of central memory ([7]; 5 mg/mL metformin): deactivates the glycolysis system
- glycolysis system (2-NBDG uptake) of effector (eff) and effector memory (EM) ([7]; 5 mg/mL metformin): activates the glycolysis system
- number and proportion of central memory [7, 10]: reduces
- numbers and proportions of effector (eff) and effector memory (EM) [7, 10]: increased
- intracellular calcium concentration by PMA/ionomycin stimulation ([8]; CD8T cells of lymph node (LN), vs non-administration group): the degree of increase was greater
- intracellular calcium concentration by PMA/ionomycin stimulation ([8]; CD8T cells of tumor tissue (Tumor), MO-5 tumor): greatly increased
- Glut-1 expression in CD8TIL [9]: very high level
